From patent publication US20230131899A1, “INHIBITORS OF MICROBIALLY INDUCED AMYLOID” (Axial Therapeutics, Inc., priority 2020, published 2023)
Like-named read-outs stand apart in the source and are kept apart here.

How the values were obtained:
[1] = target: T1, human α-synuclein (Homo sapiens, UniProt P37840); assay: Cell-free Thioflavin T assay of α-synuclein aggregation (αSyn ThT Assay); assay type: biochemical; settings: αSyn 50 μM
T1 construct: the full-length gene for untagged human α-synuclein was inserted; made in house; host or cells: E. coli BL21(DE3), plasmid derived from pT7 or pET11a
Description: To assess the effects of compounds on aggregation of α-synuclein, a cell-free assay was performed using purified α-synuclein and Thioflavin T. In the assay, human α-synuclein was expressed in E. coli BL21(DE3) from a plasmid derived from pT7 or pET11a into which the full-length gene for untagged human α-synuclein was inserted. Cells were induced at OD600 0.6 with 0.8 mM IPTG for 4 hours, harvested by centrifugation and suspended in a volume of lysis buffer (10 mM Tris, pH 8.0, 1 mM EDTA, and 1 mM PMSF) equivalent to one-tenth the volume of culture and lysed by boiling for 20 minutes. Cell debris was pelleted by centrifugation, clarified lysate was treated with 10% streptomycin sulfate at 136 μL/mL followed by glacial acetic acid at 228 μL/mL, lysate was centrifuged, supernatant was transferred to a fresh tube and protein was precipitated via addition of an equal volume of saturated (100%) ammonium sulfate and incubated at 4° C. on a rocking shaker for 1 hour. The protein was pelleted via centrifugation and washed with an equal volume of 100 mM ammonium acetate in chilled ethanol, pelleted via centrifugation, washed twice with chilled ethanol, dried overnight, resuspended in 50 mM potassium phosphate buffer pH 7.3 or 10 mM Tris pH 7.4, and passed through a 50 kDa cut-off column. Immediately prior to use, the purified α-synuclein was filtered with a 0.2 μm nylon filter. The assay was conducted in 96-well black microplates with a single 1-2 mm glass bead in each well, 20-40 μM ThioflavinT, 1% DMSO, α-synuclein at 50 μM and compounds at 20-100 μM. Plates were sealed with sealing tape (ThermoFisher 232701), incubated at 37° C. in a Tecan Nano F200 plate reader with excitation at 438 nm using a 439 nm filter with a bandwidth of 8 nm, and emission at 495 nm with a 490 nm filter with a bandwidth of 10 nm. During the assay, plates were shaken continuously or were shaken for 999 seconds every 18 minutes. Readings were performed hourly for up to 73 hours. The effect of compounds on α-synuclein aggregation in the assay was determined with data at 36, 47, 48 or 72 hours or from the final timepoint of the assay, prior to or roughly near the time when ThT fluorescence plateaued in the vehicle control wells. The vehicle controls contained all components of the assay except compounds and represented the level of α-synuclein aggregation in the absence of an inhibitor or accelerator. Fluorescence values for each compound with α-synuclein were first adjusted by subtracting the average fluorescence of the compound in the absence of α-synuclein. These adjusted values were normalized by dividing them by the average fluorescence at the same timepoint in the vehicle control wells, and the average normalized fluorescence with the compound was expressed as a percentage of the average fluorescence observed in untreated controls. Percent inhibition of α-synuclein aggregation by a compound was determined by subtracting the percent average fluorescence with the compound relative to the average vehicle control from 100%. A higher positive percent inhibition reflects greater inhibition of α-synuclein aggregation, while a negative percent inhibition reflects potentiation of α-synuclein aggregation.
Alternate concentrations of Thioflavin T may be used in the assay and may affect the fluorescent signal and sensitivity of the assay. Alternate concentrations of α-synuclein may be used and such alterations may affect aggregation kinetics of α-synuclein in the assay. Alternate concentrations of compounds may be tested in the assay, and dose-responses may be evaluated. Additional reagents may be added to the assay which may affect aggregation kinetics of α-synuclein depending on their concentration, including detergents such as sodium dodecyl sulfate, sodium chloride, dithiotreitol, or bovine serum albumin. Shaking may be included at alternate intervals in the assay and may affect α-synuclein aggregation kinetics. […]

[2] = target: T2, E. coli CsgA (Escherichia coli, UniProt P28307); assay: In vitro ThioflavinT assay of CsgA aggregation (CsgA ThT Assay); assay type: biochemical; settings: for remaining activity at 100 µM: compound 100 μM
T2 construct: made in house; host or cells: E. coli NEB 3016 slyD::kan, pET11d
Outline: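 Purified C-terminal His-tagged CsgA, monomerised by desalting and 30-kDa filtration, at 2-20 μM with 20-40 μM ThT in 50 mM potassium phosphate pH 7.3, 1% DMSO, compounds 3.125-200 uM; room temperature, fluorescence (ex 438/em 495 nm) read every 15 min. Background-subtracted signal expressed as percent inhibition versus vehicle at 6-6.5 or 8-9 h, or as percent control AUC.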

[3] = tested on: CsgA gene expression (csgBAC promoter-GFP reporter) in E. coli UTI89; assay: In vitro live cell fluorescent reporter assay of CsgA transcription (Reporter Assay); assay type: cell-based; settings: Escherichia coli
Outline: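 Compounds at 0.14–100 μM (1% DMSO final) incubated 20 h at 27 °C in YESCA broth with UTI89 carrying a single-copy GFP reporter under the csgBAC intergenic promoter region, inoculum OD600 0.003. Fluorescence normalized to vehicle wells gave IC50 and 50%-of-vehicle concentration; OD600 reduction >10% flagged growth impact.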

[4] = mean % inhibition of αSyn aggregation relative to DMSO control, compounds at 100 μM, read-out: αSyn ThT Assay % Inhibition
[5] = compounds at 100 μM, class symbol, read-out: αSyn ThT Assay % Inhibition (activity range)
[6] = read-out: CsgA ThT Assay (10 μM CsgA) % Control AUC at 1005 minutes, 25 μM (activity range), CsgA 10 μM, black plates, compound 25 μM, 1005 minutes, class symbol
[7] = read-out: CsgA ThT Assay (10 μM CsgA) % Control AUC at 1005 minutes, 25 μM, mean AUC as % of DMSO control, CsgA 10 μM, black plates, compound 25 μM, 1005 minutes
[8] = read-out: CsgA ThT Assay (10 μM CsgA) % Control AUC at 1005 minutes, 100 μM (activity range), CsgA 10 μM, black plates, 1005 minutes, class symbol
[9] = read-out: CsgA ThT Assay (10 μM CsgA) % Control AUC at 1005 minutes, 100 μM, mean AUC as % of DMSO control, CsgA 10 μM, black plates, 1005 minutes
[10] = read-out: CsgA ThT Assay (2 μM CsgA) % Control Bmax 25 μM, activity range, class symbol, CsgA 2 μM, white plates, compound 25 μM
[11] = read-out: CsgA ThT Assay (2 μM CsgA) % Control Bmax 25 μM, mean Bmax as percentage of DMSO control, CsgA 2 μM, white plates, compound 25 μM
[12] = read-out: CsgA ThT Assay (2 μM CsgA) % Control Bmax 100 μM, activity range, class symbol, CsgA 2 μM, white plates
[13] = read-out: CsgA ThT Assay (2 μM CsgA) % Control Bmax 100 μM, mean Bmax as percentage of DMSO control, CsgA 2 μM, white plates
[14] = read-out: Reporter Assay Abs IC50 (μM), median Abs IC50 in the CsgA reporter assay, N/A = maximum expression reduction is <50% of control

T2 sequence (P28307 23-151): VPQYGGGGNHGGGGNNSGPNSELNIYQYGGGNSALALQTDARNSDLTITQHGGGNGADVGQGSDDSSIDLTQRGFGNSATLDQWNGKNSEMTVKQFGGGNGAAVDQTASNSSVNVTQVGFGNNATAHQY

For `O=C(O)C1CS(=O)(=O)c2c(-c3cccc(C(F)(F)F)c3)c(Cc3cccc4ccccc34)cc(=S)n21` (racemic) [Compound 014, 7-(naphthalen-1-ylmethyl)-5-thioxo-8-(3-(trifluoromethyl)phenyl)-2,3-dihydro-5H-thiazolo[3,2-a]pyridine-3-carboxylic acid 1,1-dioxide], the inhibition at 100 µM [1, 4] was 35% and the inhibition at 100 µM [1, 5] was 31 to 60%.
`O=C(O)C1CS(=O)(=O)c2c(-c3cccc(C(F)(F)F)c3)c(Cc3cccc4ccccc34)cc(=O)n21` (racemic) [Compound 010, 7-(naphthalen-1-ylmethyl)-5-oxo-8-(3-(trifluoromethyl)phenyl)-2,3-dihydro-5H-thiazolo[3,2-a]pyridine-3-carboxylic acid 1,1-dioxide] showed an inhibition at 100 µM [1, 4] of 13% and an inhibition at 100 µM [1, 5] of 11 to 30%.
`CN1CC(C(=O)O)n2c(c(-c3cccc(C(F)(F)F)c3)c(Cc3ccc(N)c4ccccc34)cc2=O)S1(=O)=O` (centres unmarked) [Compound 040] showed an inhibition at 100 µM [1, 4] of 61%, an inhibition at 100 µM [1, 5] greater than 60% and a remaining activity at 25 µM [2, 6] greater than 60%. For the same compound, the remaining activity at 25 µM [2, 7] was 78%, the remaining activity at 100 µM [2, 8] was less than 10% and the remaining activity at 100 µM [2, 9] was 8%.
In the case of `O=C(O)C1CS(=O)(=O)c2c(-c3cccc(C(F)(F)F)c3)c(Cc3cccc4ccccc34)cc(=S)n21` (single isomer, unassigned) [Compound 014a, 7-(naphthalen-1-ylmethyl)-5-thioxo-8-(3-(trifluoromethyl)phenyl)-2,3-dihydro-5H-thiazolo[3,2-a]pyridine-3-carboxylic acid 1,1-dioxide], the inhibition at 100 µM [1, 4] is reported as 68%, the inhibition at 100 µM [1, 5] is reported as greater than 60% and the “CsgA ThT Assay (10 μM CsgA) % Control AUC at 1005 minutes, 25 μM (activity range)” value ([2]; CsgA 10 μM, black plates, compound 25 μM, 1005 minutes, class symbol) is reported as “(++) (% control AUC of 31 to 60%)”. For the same compound, the “CsgA ThT Assay (10 μM CsgA) % Control AUC at 1005 minutes, 25 μM” value ([2]; mean AUC as % of DMSO control, CsgA 10 μM, black plates, compound 25 μM, 1005 minutes) was 37%, the remaining activity at 100 µM [2, 8] was 11 to 31% and the remaining activity at 100 µM [2, 9] was 29%.
Compound `CC(C)CNC(=O)c1c(Cc2cccc3ccccc23)c(-c2cccc(C(F)(F)F)c2)c2n(c1=O)C(C(=O)O)CN(C)S2(=O)=O` (centres unmarked) [Compound 159, 7-(isobutylcarbamoyl)-2-methyl-8-(naphthalen-1-ylmethyl)-6-oxo-9-(3-(trifluoromethyl)phenyl)-3,4-dihydro-2H,6H-pyrido[1,2-e][1,2,5]thiadiazine-4-carboxylic acid 1,1-dioxide] has an inhibition at 100 µM ([1]; class symbol, compounds 100 μM, read-out: αSyn ThT Assay % inhibition, activity range) greater than 60%, an inhibition at 100 µM ([1]; mean percent inhibition relative to DMSO control, compounds 100 μM, read-out: αSyn ThT Assay % inhibition) of 83% and a remaining activity at 25 µM [2, 10] greater than 60%. It also gave a remaining activity at 25 µM [2, 11] of 64%, a remaining activity at 100 µM [2, 12] greater than 60% and a remaining activity at 100 µM [2, 13] of 76%.
With `O=C(O)C1CNS(=O)(=O)c2c(-c3cccc(C(F)(F)F)c3)c(Cc3cccc4ccccc34)cc(=O)n21` (racemic) [Compound 009, 8-(naphthalen-1-ylmethyl)-6-oxo-9-(3-(trifluoromethyl)phenyl)-3,4-dihydro-2H,6H-pyrido[1,2-e][1,2,5]thiadiazine-4-carboxylic acid 1,1-dioxide] the inhibition at 100 µM [1, 4] was 28% and the inhibition at 100 µM [1, 5] was 11 to 30%.
For `CN1CC(C(=O)O)n2c(c(-c3cccc(C(F)(F)F)c3)c(Cc3cccc4ccccc34)cc2=O)S1(=O)=O` (single isomer, unassigned) [Compound 008b, 2-methyl-8-(naphthalen-1-ylmethyl)-6-oxo-9-(3-(trifluoromethyl)phenyl)-3,4-dihydro-2H,6H-pyrido[1,2-e][1,2,5]thiadiazine-4-carboxylic acid 1,1-dioxide], the “αSyn ThT Assay % Inhibition” value ([1]; mean % inhibition of αSyn aggregation relative to DMSO control, compounds at 100 μM) was 10% and the “αSyn ThT Assay % Inhibition (activity range)” value ([1]; compounds at 100 μM, class symbol) was “(−) ((−) represents −10 to 10)”.
With `CCc1c(Cc2cccc3ccccc23)c(-c2cccc(C(F)(F)F)c2)c2n(c1=O)C(C(=O)O)CN(CCCO)S2(=O)=O` (centres unmarked) [Compound 112, 7-ethyl-2-(3-hydroxypropyl)-8-(naphthalen-1-ylmethyl)-6-oxo-9-(3-(trifluoromethyl)phenyl)-3,4-dihydro-2H,6H-pyrido[1,2-e][1,2,5]thiadiazine-4-carboxylic acid 1,1-dioxide] the IC50 ([3]; read-out: Reporter Assay Abs IC50 (activity range), median Abs IC50 in the CsgA reporter assay, class symbol) was 4.6 to 10 µM, the IC50 [3, 14] was 9 µM and the remaining activity at 25 µM [2, 6] was 31 to 60%. It also gave a remaining activity at 25 µM [2, 7] of 35%, a remaining activity at 100 µM [2, 8] of 11 to 31% and a remaining activity at 100 µM [2, 9] of 20%.
For `CC(C)(C)c1ccc(CN2CC(C(=O)O)n3c2c(-c2cccc(C(F)(F)F)c2)c(Cc2cccc4ccccc24)c(Cl)c3=O)cc1` (centres unmarked) [Compound 208, 1-(4-(tert-butyl)benzyl)-6-chloro-7-(naphthalen-1-ylmethyl)-5-oxo-8-(3-(trifluoromethyl)phenyl)-1,2,3,5-tetrahydroimidazo[1,2-a]pyridine-3-carboxylic acid], the IC50 [3, 14] was 1 µM, the IC50 ([3]; read-out: Reporter Assay Abs IC50, activity range, class symbol) was less than 1.3 µM and the remaining activity at 25 µM [2, 10] was 31 to 60%. The remaining activity at 25 µM [2, 11] was 46%, the remaining activity at 100 µM [2, 12] was 11 to 31% and the remaining activity at 100 µM [2, 13] was 25%.
